Experimental data reported in ChEMBL document CHEMBL1201862, “PubChem BioAssay data set” (2004).
The source made the active and inactive calls.

What was measured:
[1] = HGIII-sPLA2 enzyme inhibition potency – biochemical, QFRET, IC50, dose response (AID 743457);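 note: green fluorescence rise as the enzyme cleaves BODIPY PC-A2 in liposomes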
[2] = cells; assay type: functional, cell-based
[3] = biological target: T1, Trace amine-associated receptor 1 (Homo sapiens, UniProt Q96RJ0); assay: Fluorescence-based cell-based high throughput dose response assay to identify agonists of the human trace amine associated receptor 1 (TAAR1).; assay type: functional
T1 sequence (Q96RJ0 whole entry): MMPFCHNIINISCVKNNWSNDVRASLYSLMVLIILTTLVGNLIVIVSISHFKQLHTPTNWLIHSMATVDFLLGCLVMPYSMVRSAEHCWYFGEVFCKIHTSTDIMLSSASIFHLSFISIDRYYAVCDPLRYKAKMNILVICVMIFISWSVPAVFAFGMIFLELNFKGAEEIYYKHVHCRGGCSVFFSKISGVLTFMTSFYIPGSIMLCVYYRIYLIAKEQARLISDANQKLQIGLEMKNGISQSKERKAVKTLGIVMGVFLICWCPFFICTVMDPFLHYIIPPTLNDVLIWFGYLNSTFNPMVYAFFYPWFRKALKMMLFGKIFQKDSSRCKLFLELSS

[4] = biological target: T1, Trace amine-associated receptor 1; assay: Counterscreen for agonists of the human trace amine associated receptor 1 (hTAAR1): Fluorescence-based cell-based high throughput dose response assay to identify hTAAR1 agonist that also desensitize TAAR1 receptor response.; assay type: functional
[5] = cells; assay type: functional, cell-based; remark: listed apart in the source
[6] = biological target: COUP transcription factor 2 (Homo sapiens, UniProt P24468); assay: Luminescence-based cell-based high throughput dose response assay to identify inhibitors of COUP-TFII (NR2F2).; assay type: functional;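 note: HEK293 cells transiently cotransfected with COUP-TFII expression vector and reporter; luciferase reporter luminescence driven by COUP-TFII from the pX2-168 reporter plasmid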
[7] = biological target: T2, Sentrin-specific protease 1 (Homo sapiens, UniProt Q9P0U3); assay: SENP1 catalytic domain blockers, concentration series – biochemical, kinetic FRET, dose response (AID 651697); assay type: functional; conditions: read-out: IC50_Mean
T2 sequence (Q9P0U3 whole entry): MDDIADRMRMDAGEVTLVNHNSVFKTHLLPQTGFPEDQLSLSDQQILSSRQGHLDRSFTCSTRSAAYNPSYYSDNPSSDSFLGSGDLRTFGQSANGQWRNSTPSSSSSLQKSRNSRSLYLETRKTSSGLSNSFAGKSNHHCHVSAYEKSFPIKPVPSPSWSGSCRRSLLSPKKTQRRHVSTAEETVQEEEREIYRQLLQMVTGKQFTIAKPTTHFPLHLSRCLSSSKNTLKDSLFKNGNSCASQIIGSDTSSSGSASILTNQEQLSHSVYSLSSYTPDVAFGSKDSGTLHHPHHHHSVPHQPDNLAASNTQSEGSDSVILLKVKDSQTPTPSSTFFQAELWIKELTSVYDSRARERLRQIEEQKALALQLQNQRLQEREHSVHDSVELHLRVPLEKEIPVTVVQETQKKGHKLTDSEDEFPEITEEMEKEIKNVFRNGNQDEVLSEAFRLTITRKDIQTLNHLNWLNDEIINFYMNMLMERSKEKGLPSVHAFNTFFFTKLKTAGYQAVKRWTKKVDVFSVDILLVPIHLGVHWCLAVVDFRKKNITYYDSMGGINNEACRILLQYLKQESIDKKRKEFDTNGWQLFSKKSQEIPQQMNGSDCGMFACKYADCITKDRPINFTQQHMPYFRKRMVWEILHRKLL

[8] = biological target: T2, Sentrin-specific protease 1; assay: Dose response confirmation of small molecule inhibitors of the catalytic domain of the SUMO protease, SENP1 in a FRET assay.; assay type: functional; conditions: read-out: IC50_Mean
[9] = biological target: Dual specificity tyrosine-phosphorylation-regulated kinase 1A (Rattus norvegicus, UniProt Q63470); assay type: biochemical, Homo sapiens
[10] = biological target: Galanin receptor type 3 (Homo sapiens, UniProt O60755); assay: Fluorescence-based cell-based primary high throughput dose response assay to identify antagonists of the Galanin Receptor 3 (GalR3).; assay type: functional
[11] = cells; assay type: functional, cell-based; conditions: HEK-CNG
[12] = reduced cellular PGC1a acetyl-lysine signal – cell-based, cherry-picked samples, dose response (AID 720514); assay type: functional;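 note: potency may reflect raised or lowered acetylation signal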
[13] = growth inhibition of yeast DHODH-expressing 3D7 parasites – SYBR Green, dry powder samples, dose response (AID 1159570); assay type: functional, cell-based;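 note: parasite growth measured after 72 hours of compound exposure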
[14] = toxicity to human HepG2 hepatoma cells – cell-based, plate reader, dry powder samples, cytotoxicity control, dose response (AID 1159569); assay type: functional;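 note: inhibitor potency with signal falling toward the positive control level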
[15] = P. falciparum Dd2 growth inhibitors, dose response, SYBR Green, cherry-picked samples (AID 1159567); assay type: functional, cell-based
[16] = Dd2 malaria parasite growth inhibition potency – SYBR Green, dry powder samples, dose response (AID 1159566); assay type: functional, cell-based;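 note: potency for growth inhibition with lower SYBR green DNA signal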
[17] = growth inhibition of PfATP4-mutant resistant parasites – NITD609-resistant line, SYBR Green, dry powder, dose response (AID 1159571); assay type: functional, cell-based;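 note: parasites synchronized at ring stage by sorbitol before testing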

Chain of Galanin receptor type 3 (O60755 whole entry): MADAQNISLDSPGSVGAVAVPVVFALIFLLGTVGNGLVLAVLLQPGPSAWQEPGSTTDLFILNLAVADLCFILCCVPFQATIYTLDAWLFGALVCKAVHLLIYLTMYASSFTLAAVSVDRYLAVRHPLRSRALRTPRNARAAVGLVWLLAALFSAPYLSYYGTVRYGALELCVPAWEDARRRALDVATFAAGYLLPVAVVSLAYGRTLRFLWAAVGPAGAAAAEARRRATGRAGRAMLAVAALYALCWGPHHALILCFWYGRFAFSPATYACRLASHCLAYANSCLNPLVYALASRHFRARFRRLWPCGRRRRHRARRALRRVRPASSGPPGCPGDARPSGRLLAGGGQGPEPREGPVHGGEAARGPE
Chain of COUP transcription factor 2 (P24468 whole entry, the tested form may be a part): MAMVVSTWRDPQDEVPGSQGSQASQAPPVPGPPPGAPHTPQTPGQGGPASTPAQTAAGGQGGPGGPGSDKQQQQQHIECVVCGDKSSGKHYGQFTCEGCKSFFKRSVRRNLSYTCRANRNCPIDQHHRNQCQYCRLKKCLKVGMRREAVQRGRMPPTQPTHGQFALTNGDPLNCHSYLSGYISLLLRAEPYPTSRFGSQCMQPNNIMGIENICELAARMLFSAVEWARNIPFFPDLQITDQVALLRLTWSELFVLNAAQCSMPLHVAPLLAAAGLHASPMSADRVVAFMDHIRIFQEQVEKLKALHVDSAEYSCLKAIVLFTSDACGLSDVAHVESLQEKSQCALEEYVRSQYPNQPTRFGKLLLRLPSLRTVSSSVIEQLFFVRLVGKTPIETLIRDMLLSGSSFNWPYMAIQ

SMILES: CC(C)Cc1c(C#N)c(S)nc2c1CCCC2
- IC50 [1]: > 122 µM (inactive)

SMILES: O=C(O)/C=C/C(=O)NCCc1ccccc1
- IC50 [2]: > 29.9 µM (inactive)
- EC50 [3]: 0.153 µM (active)
- IC50 [4]: 1.19 µM (active)
- EC50 [5]: > 29.9 µM (inactive)

SMILES: CC1Cc2cc(-c3csc(NC(=O)Cc4ccccc4)n3)ccc2N1S(C)(=O)=O (centres undefined)
- IC50 [6]: 6.11 µM (active)

SMILES: CCC(=NN=C(CC)c1ccccc1O)c1ccccc1O
- IC50 [7]: 8.19 µM (active)
- IC50 [8]: 10.4 µM (active)

SMILES: O=C1NC(=S)SC1=Cc1cc(Br)ccc1O
- AC50 [9]: 8.94 µM (active)
- IC50 [7]: 14.7 µM (active)
- IC50 [8]: 2.57 µM (active)

SMILES: CCCCC[C@@H](/C=C/C1C(=O)C=C[C@H]1C/C=C\CCCC(=O)O)OC(C)=O (some centres undefined)
- IC50 [10]: 1.09 µM (active)
- EC50 [11]: > 29.9 µM (inactive)

SMILES: CO[C@@H]1CN(C)C(=O)c2cc(NC(C)=O)ccc2OC[C@@H](C)N(Cc2ccccc2C(=O)O)C[C@@H]1C
- AC50 [12]: 23.6 µM (active)

SMILES: COc1cccc(CN(C)C[C@H]2OCc3ccccc3-c3c(n(C)c4ccccc34)C(=O)N([C@H](C)CO)C[C@@H]2C)c1
- AC50 [13]: 3.29 µM (active)
- AC50 [14]: 20.6 µM (active)
- AC50 [15]: 2.76 µM (active)
- AC50 [16]: 2.87 µM (active)
- AC50 [17]: 3.55 µM (active)

SMILES: O=C(c1ccc(F)cc1)N1CC(=O)N2[C@H](CO)[C@H](c3ccc(-c4cccnc4)cc3)[C@H]2C1
- AC50 [13]: 1.2 µM (active)
- AC50 [14]: > 100 µM (inactive)
- AC50 [15]: 0.821 µM (active)
- AC50 [16]: 0.964 µM (active)
- AC50 [17]: 1.27 µM (active)
